Reference: patent US4748177A, “Guanine derivatives” (Warner-Lambert Company, priority 1985, dated 1988)

Test system: T-cells
Assay: standard test of selective cytotoxicity for T-cells in the presence of 2'-deoxyguanosine
Assay type: cell-based
Settings: in the presence of 10 μM of 2'-deoxyguanosine
Experimental: […] activity was measured radiochemically by measuring the formation of [^14 -C]-hypoxanthine from [^14 -C]-inosine [Biomedicine, 33, 39 (1980)] using human erythrocyte as the enzyme source. The same compounds also were found by a standard test [Science, 214, 1137, (1981)] to be selectively cytotoxic for T-cells in the presence of 2'-deoxyguanosine at a similar concentration range. For example, 8-amino-9-[(4-methylphenyl)methyl]guanine is selectively cytotoxic to T-cells at a concentration of about 3.1 μM in the presence of 10 μM of 2'-deoxyguanosine. Similarly, 8-amino-9-[(4-methoxyphenyl)methyl]guanine is selectively cytotoxic to T-cells at concentration of about 1.1 μM in the presence of 10 μM of 2'-deoxyguanosine. On the other hand, these compounds were nontoxic to B-cells in the presence or absence of the same amount of 2'-deoxyguanosine. Since T-cells play a central role in immune response, use of the compounds of the invention is contemplated for the immunoregulation of rejection in transplantation and autoimmune disease such as rheumatoid arthritis, systemic lupus erythematosus, inflammatory bowel disease, cancer, juvenile diabetes, myasthenia gravis, multiple sclerosis, and viral diseases. […]

SMILES	concentration at which selectively cytotoxic to T-cells
COc1ccc(Cn2c(N)nc3c(=O)[nH]c(N)nc32)cc1 [8-amino-9-[(4-methoxyphenyl)methyl]guanine]	about 1.1 μM
Cc1ccc(Cn2c(N)nc3c(=O)[nH]c(N)nc32)cc1 [8-amino-9-[(4-methylphenyl)methyl]guanine]	about 3.1 μM
